Laboratory results: patent US11273165B2, “Applications for estradiol in preparing anti-small cell lung cancer and/or ovarian cancer and/or osteosarcoma products” (SHANGHAI JIAO TONG UNIVERSITY, priority 2015, dated 2022)

Legend:
Format in all cases: cell-based
[1] = test system: SKOV-3 ovarian cancer cells; test: CellTiter-Glo luminescent cell viability assay, SKOV-3 ovarian cancer cells; conditions: Homo sapiens, 72 hours
Protocol: (§1) In example 1, CELLTITER-GLO was used to test estradiol against small-cell lung cancer and/or ovarian cancer and/or osteosarcoma epithelial cell carcinoma 1. Cell plating • a) The complete medium required for each cell was prepared. • b) Before beginning the experiment, the name of the drug screened for the cells marked on the 100 mm petri dish was confirmed as well as information such as the passage time and number of passages to ensure the experiment was error-free. • c) Refer to steps d) through i) for procedures for adherent cells; refer to steps j) through l) for procedures for suspension cells. • d) When using aseptic technique, a vacuum pump was used to draw the cell culture medium. • e) 2 ml of a sterile PBS solution was used to rinse the cell surface, and a vacuum pump was used to aspirate the PBS waste. • f) A 1 ml 0.25% (w/v) Trypsin-0.038% (w/v) EDTA solution was gently added to the petri dish for cell digestion, and after gently mixing several times, the solution covered the cell surfaces. […]

[2] = test system: SNU-475 human hepatoma cells; test: CellTiter-Glo luminescent cell viability assay, SNU-475 human hepatoma cells; conditions: 72 hours
[3] = test system: NCI-H82 small-cell lung cancer cells; test: CellTiter-Glo luminescent cell viability assay, NCI-H82 small-cell lung cancer cells; conditions: Homo sapiens, 72 hours
Protocol: as §1

U2OS osteosarcoma cells = test: CellTiter-Glo luminescent cell viability assay, U2OS osteosarcoma cells; conditions: Homo sapiens, 72 hours
Protocol: as §1

[4] = test system: NCI-H810 human hepatoma cells; test: CellTiter-Glo luminescent cell viability assay, NCI-H810 human hepatoma cells; conditions: 72 hours
Protocol: as §1

- IC50 ([1]; SK-OV-3, SKOV-3 ovarian cancer cells): 3.07 µM
- EC50 ([1]; SK-OV-3, ovarian cancer cells, read-out: EC50 (estradiol sensitivity to ovarian cancer, FIG. 2)): 3.03 µM
- IC50 [2]: ≥ 100 µM
- IC50 [3]: 16.3 µM
- EC50 ([3]; read-out: EC50 (estradiol sensitivity to small-cell lung cancer, FIG. 3)): 15.3 µM
- IC50 (U2OS osteosarcoma cells): 32.7 µM
- EC50 (U2OS osteosarcoma cells; read-out: EC50 (estradiol sensitivity to osteosarcoma, FIG. 4)): 28.8 µM
- IC50 [4]: ≥ 100 µM
SMILES: C[C@]12CC[C@@H]3c4ccc(O)cc4CC[C@H]3[C@@H]1CC[C@@H]2O [estradiol]
